The values that follow come from patent US20070185215A1, “Pharmaceutical composition containing obovatol as an active ingredient for the prevention and treatment of neurodegenerative diseases” (priority 2006, published 2007).

Data set [1] relates to BV-2 murine microglial cell line. Nature of the data set: Inhibition of nitric oxide production in LPS-activated microglia (Griess reaction). Type of data set: cell-based. Conditions: BV-2 cells, 100 ng/ml LPS, 24 hours. The method, then:
(§1) The BV-2 murine microglial cell line, obtained from Prof. Eui-Ju, Choi, School of Life Sciences and Technology in Korea University, Korea, was treated with 100 ng/ml of LPS (lipopolysaccharide), known to activate microglial cells, in the presence of 1 μg/ml or 10 μg/ml obovatol for 24 hours, and then the nitric oxides secreted into the culture media were quantitatively analyzed using a Griess reaction method to determine the activity of the microglia. In detail, 50 μl of the microglial culture medium was reacted with 50 μl of the Griess reagent [1% sulfanilamide/0.1% naphthylethylene diamine dihydrochloride/2% phosphoric acid] at room temperature for 10 min, followed by measuring absorbance at 540 nm with the aid of a microplate reader (Anthos Labtec Instruments GmbH Salzburg, Austria). For comparison, magnolol, known to have a neuroprotective effect, was also tested in the same manner. Using NaNO2 as a standard material, inhibition rates of the test materials were calculated for the production of nitric oxides. Also, MTT assay was conducted to measure cytotoxicity in order to determine whether or not the inhibitory activity against microglial activity was attributed to cytotoxicity.

Data set [2] can be described thus: Solubility (physical and chemical properties). Type of data set: physicochemical.
The test system of a further data set is SD rats. Nature of the data set: Acute oral toxicity assay in rats. It is filed as in vivo. As for the experimental part: Using six-week-old specific pathogen-free (SPF) SD rats, an acute toxicity assay was conducted. The rats were divided into groups of two rats. After being dissolved in injectable saline, the obovatol, obtained in Example 1, was orally administered once in a dosage of 1 g/kg/ml to the rat groups. Afterwards, observations were made of the death, clinical symptoms, and weight changes of the animals, and serological and serobiochemical assays were conducted. Also, an autopsy was carried out to examine abnormalities of the abdominal and thoracic organs with the naked eye.

Data set [3] has as its system BV-2 murine microglial cell line. Nature of the data set: MTT assay for cytotoxicity. Conditions: concentrations as high as 30˜50 μg/ml. It is filed as cell-based. The method, then: as §1

obovatol: the “Inhibition Rates (%) of Nitric Oxide Production” value in data set [1] (1 μg/ml compound) is on record as 29.8%; in data set [1] (10 μg/ml compound) it was 83.3%. The Solubility entry in data set [2] (Alcohol, DMSO) is reported as “Soluble”; in data set [2] (Hexane, water), “Insoluble”. Besides, the “Noticeable clinical symptoms or death” value in the data set on SD rats (SD rats, oral, once, 1 g/kg/ml) is “None of the animals”. Further, the “Toxicity in weight change, serological assay, serobiochemical assay, autopsy observations” value in the data set with SD rats (SD rats, oral, once, 1 g/kg/ml) is “not observed”. In addition, the “Dose causing no toxic effects” value with SD rats (rat, in vivo, po) was not above 500 mg/kg. Moreover, the “Cytotoxicity as measured by MTT assay” value in data set [3] is recorded as “did not exhibit cytotoxicity”.
For orientation: inhibition means the drop in the measured response relative to a control, in per cent. As for `C=CCc1ccc(O)c(-c2cc(CC=C)ccc2O)c1` [Magnolol, magnolol, reference compound], the inhibition at 1 µg/mL in data set [1] (Mus musculus, 1 μg/ml compound, read-out: Inhibition Rates (%) of Nitric Oxide Production) is 13.1%. Besides, in data set [1] (Mus musculus, 10 μg/ml compound, read-out: Inhibition Rates (%) of Nitric Oxide Production), the inhibition at 10 µg/mL was found to be 59%.
